Results on 19 compounds are retold here after patent US12024506B2, “Compounds” (Oxford University Innovation Limited, priority 2018, dated 2024).

Molecules are shown by their SMILES.

For experiment [1], the target named is T1, GST-human KRas166 (G12V) GPPNHP (Homo sapiens, UniProt P01116, G12V).
T1 construct: made in house; host or cells: E. coli C41(DE3)
Kind of experiment: KRas small-molecule screening by SPR (Biacore T200). Particulars: compound 100 uM, 5% DMSO buffer; immobilised GST-KRas166 (G12V) GPPNHP. The format is binding. In short, it runs like this: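 Biacore T200 screen: compounds at 100 uM final in 5% DMSO buffer (100 mM NaCl, 5 mM MgCl2) over GPPNHP-bound GST-KRas166 G12V captured by anti-GST antibody (10,000–15,000 RU) versus GST-only channel. Expected 1:1 Rmax 63 RU; DMSO solvent correction applied.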
(In general: Surface plasmon resonance follows binding to a sensor surface in real time, without labels.)

Experiment [2] deals with DLD1 cells (ATCC CCL-221). The experiment is described as follows: Cell viability assay 1 (CellTiter-Glo), DLD1 cells. The format is cell-based. Particulars: Homo sapiens, DLD-1 cells, 48 h, second value of the cell, read-out: Cell Viability DLD-1 (concentration that decreases cell viability by 50%). How it is done:
(§1) Cells (A549 ATCC CCL-185) are cultured in Dulbecco's Modified Eagle's Medium plus 10% foetal calf serum and 2 mM L-glutamine at 37° C., 5% CO2. Cells are plated onto white clear bottom 96-well plates (5000 cells/well in 200 μl media) and left to adhere overnight at 37° C., 5% CO2. Next day, test compound (1 μl at 200× concentration in 100% DMSO) is added to give final test compound concentration 1× in 0.5% DMSO. After 48 h of incubation at 37° C., 5% CO2, 20 μl CellTiter-Glo reagent (Promega G7572) is added into each well. Plates are incubated at room temperature with shaking for 30 min and then luminescence is read using a PheraStar plate reader. The concentration of compounds that decrease cell viability by 50% is calculated from dose response curves generated using Dotmatics data analysis software.
In the DLD1 cell assay, cells (ATCC CCL-221) are cultured in RPMI-1640 medium plus 10% foetal calf serum and 2 mM L-glutamine at 37° C., 5% CO2.
(ATP-based viability assays read luminescence as a measure of living cells.)

For experiment [3], the system named is H358 cells (ATCC CRL-5807). The experiment is described as follows: Cell viability assay 1 (CellTiter-Glo), H358 cells. The conditions noted are these: Homo sapiens, NCI-H358, 48 h, first value of the cell, read-out: Cell Viability H358 (concentration that decreases cell viability by 50%). The format is cell-based. The protocol:
as §1
In the H358 cell assay, cells (ATCC CRL-5807) are cultured in RPMI-1640 medium plus 10% foetal calf serum and 2 mM L-glutamine at 37° C., 5% CO2.

Turning to `c1cc2c(c(-c3cnc(Nc4ccc(CNCC5COCCN5)cc4)cn3)c1)OCCO2` (stereo not drawn) [Example 155, [5-(2,3-Dihydro-benzo[1,4]dioxin-5-yl)-pyrazin-2-yl]-(4-{[(morpholin-3-ylmethyl)-amino]-methyl}-phenyl)-amine], the “SPR Response Units” value in experiment [1] turned out to be 71 Response Units. The IC50 in experiment [2] was determined as 0.56 µM; in experiment [3], 12.7 µM.
For `CN(C)Cc1cccc(CN2CCN(c3cccc4c3OCCO4)CC2)c1` [Example 157, {3-[4-(2,3-Dihydro-benzo[1,4]dioxin-5-yl)-piperazin-1-ylmethyl]-benzyl}-dimethyl-amine], in that order: 7 Response Units, over 150 µM and over 150 µM.
For the compound `COc1nc(-c2cccc3c2OCCO3)ccc1Nc1ccc(C(=O)NCC2CCN(C)CC2)cc1` [Example 158, 4-[6-(2,3-Dihydro-benzo[1,4]dioxin-5-yl)-2-methoxy-pyridin-3-ylamino]-N-(1-methyl-piperidin-4-ylmethyl)-benzamide], the “SPR Response Units” value in experiment [1] turned out to be 269 Response Units. Moreover, the IC50 in experiment [2] turned out to be 3.5 µM; in experiment [3], 20.6 µM.
The like results for `COc1nc(-c2cccc3c2OCCO3)ccc1Nc1ccc(C(=O)NCC2CCC(=O)NC2)cc1` (stereo not drawn) [Example 159] were, in that order, 122 Response Units, 14.1 µM and 24.7 µM.
For `COc1nc(-c2cccc3c2OCCO3)ccc1Nc1ccc(C(=O)NCc2cn[nH]c2)cc1` [Example 160], in that order: 89 Response Units, 11 µM and 20.7 µM.
For `COc1nc(-c2cccc3c2OCCO3)ccc1Nc1cccc(C(=O)NCc2cccc(C)n2)c1` [Example 162, 3-[6-(2,3-Dihydro-benzo[1,4]dioxin-5-yl)-2-methoxy-pyridin-3-ylamino]-N-(6-methyl-pyridin-2-ylmethyl)-benzamide], in that order: 36 Response Units, 3.9 µM and 27.9 µM.
For the compound `COc1nc(-c2cccc3c2OCCO3)ccc1Nc1cccc(C(=O)NCC2CCN(C)CC2)c1` [Example 163, 3-[6-(2,3-Dihydro-benzo[1,4]dioxin-5-yl)-2-methoxy-pyridin-3-ylamino]-N-(1-methyl-piperidin-4-ylmethyl)-benzamide], in experiment [1], the “SPR Response Units” value came to 192 Response Units. Further, the figures for the IC50 in experiment [2] and in experiment [3] were 0.74 µM and 8.9 µM, respectively.
The like results for `COc1nc(-c2cccc3c2OCCO3)ccc1Nc1cccc(C(=O)NCC2CCC(=O)NC2)c1` (stereo not drawn) [Example 164, 3-[6-(2,3-Dihydro-benzo[1,4]dioxin-5-yl)-2-methoxy-pyridin-3-ylamino]-N-(6-oxo-piperidin-3-ylmethyl)-benzamide] were, in that order, 136 Response Units, 4.8 µM and 25.9 µM.
The like results for `COc1nc(-c2cccc3c2OCCO3)ccc1Nc1cccc(C(=O)NCc2cc[nH]c(=O)c2)c1` [Example 165, 3-[6-(2,3-Dihydro-benzo[1,4]dioxin-5-yl)-2-methoxy-pyridin-3-ylamino]-N-(2-oxo-1,2-dihydro-pyridin-4-ylmethyl)-benzamide] were, in that order, 114 Response Units, 11.1 µM and 18.3 µM.
The like results for `COc1nc(-c2cccc3c2OCCO3)ccc1Nc1cccc(C(=O)NCC2CNC(=O)C2)c1` (stereo not drawn) [Example 166, 3-[6-(2,3-Dihydro-benzo[1,4]dioxin-5-yl)-2-methoxy-pyridin-3-ylamino]-N-(5-oxo-pyrrolidin-3-ylmethyl)-benzamide] were, in that order, 133 Response Units, 8.3 µM and 20.5 µM.
With `COc1nc(-c2cccc3c2OCCO3)ccc1Nc1cccc(C(=O)NCC2CCN(C(C)=O)CC2)c1` [Example 167, N-(1-Acetyl-piperidin-4-ylmethyl)-3-[6-(2,3-dihydro-benzo[1,4]dioxin-5-yl)-2-methoxy-pyridin-3-ylamino]-benzamide], the “SPR Response Units” value in experiment [1] is reported as 73 Response Units. Further, the IC50 in experiment [2] amounted to 3.5 µM; in experiment [3], 15.8 µM.
Regarding `COc1nc(-c2cccc3c2OCCO3)ccc1Nc1ccc(CNCc2cc[nH]c(=O)c2)cc1` [Example 170, 4-({4-[6-(2,3-Dihydro-benzo[1,4]dioxin-5-yl)-2-methoxy-pyridin-3-ylamino]-benzylamino}-methyl)-1H-pyridin-2-one], the “SPR Response Units” value in experiment [1] is 284 Response Units. Also, the IC50 in experiment [2] was 2 µM; in experiment [3], 13.6 µM.
For `COc1nc(-c2cccc3c2OCCO3)ccc1Nc1ccc(CNCC2CCN(C(=O)OC(C)(C)C)CC2)cc1` [Example 171, 4-({4-[6-(2,3-Dihydro-benzo[1,4]dioxin-5-yl)-2-methoxy-pyridin-3-ylamino]-benzylamino}-methyl)-piperidine-1-carboxylic acid tert-butyl ester], in that order: 30 Response Units, 0.14 µM and 6.6 µM.
The like results for `COc1nc(-c2cccc3c2OCCO3)ccc1Nc1ccc(CNCC2CCC(=O)NC2)cc1` (stereo not drawn) [Example 172, 5-({4-[6-(2,3-Dihydro-benzo[1,4]dioxin-5-yl)-2-methoxy-pyridin-3-ylamino]-benzylamino}-methyl)-piperidin-2-one] were, in that order, 174 Response Units, 4.7 µM and 23.3 µM.
The like results for `COc1nc(-c2cccc3c2OCCO3)ccc1Nc1ccc(CNCC2CNC(=O)C2)cc1` (stereo not drawn) [Example 173, 4-({4-[6-(2,3-Dihydro-benzo[1,4]dioxin-5-yl)-2-methoxy-pyridin-3-ylamino]-benzylamino}-methyl)-pyrrolidin-2-one] were, in that order, 147 Response Units, 4 µM and 7.4 µM.
In the case of `COc1nc(-c2cccc3c2OCCO3)ccc1Nc1ccc(C(=O)NCc2cccnc2)cc1` [Example 175, 4-[6-(2,3-Dihydro-benzo[1,4]dioxin-5-yl)-2-methoxy-pyridin-3-ylamino]-N-pyridin-3-ylmethyl-benzamide], in experiment [1], the “SPR Response Units” value was 63 Response Units. For the same compound, the figures for the IC50 in experiment [2] and in experiment [3] were 8.2 µM and 15.8 µM, respectively.
As for `COc1nc(-c2cccc3c2OCCO3)ccc1Nc1ccc(CNCC2CCNCC2)cc1` [Example 178, [6-(2,3-Dihydro-benzo[1,4]dioxin-5-yl)-2-methoxy-pyridin-3-yl]-(4-{[(piperidin-4-ylmethyl)-amino]-methyl}-phenyl)-amine], the “SPR Response Units” value in experiment [1] stood at 150 Response Units. Further, the figures for the IC50 in experiment [2] and in experiment [3] were 0.27 µM and 1.8 µM, respectively.
For `COc1nc(-c2cccc3c2OCCO3)ccc1Nc1ccc(C(=O)NCC2CCNCC2)cc1` [Example 179, 4-[6-(2,3-Dihydro-benzo[1,4]dioxin-5-yl)-2-methoxy-pyridin-3-ylamino]-N-piperidin-4-ylmethyl-benzamide], in that order: 162 Response Units, 0.39 µM and 7.5 µM.
For `COc1nc(-c2cccc3c2OCCO3)ccc1Nc1cccc(C(=O)NCC2CCNCC2)c1` [Example 180, 3-[6-(2,3-Dihydro-benzo[1,4]dioxin-5-yl)-2-methoxy-pyridin-3-ylamino]-N-piperidin-4-ylmethyl-benzamide], in that order: 197 Response Units, 0.65 µM and 8.6 µM.
